For data set [1], the system named is C6 rat glioma cells. The data set can be described thus: Screening and dose response assay (percent survival, 4 days, cresyl violet) on C6 glioma. It counts as cell-based. An excerpt: (§1) Screening and Dose Response Assays. […]-1-(2′-methoxybiphenyl-4-ylmethyl)-3,4-dihydro-1H-isoquinoline-2-carboxylic acid tert-butyl ester (7a; EDL-355) was synthesized as described herein in the laboratory of Dr. Duane D. Miller at The University of Tennessee Health Science Center. Briefly, the primary cultures of astrocytes and cultures of C6 glioma cell lines were handled identically with respect to treatment concentrations and manipulations of cells for the screening assays. The cells were trypsinized and transferred to 96-well plates at a cell density of 10^3 cells/mm^2 in the wells. The cells were grown overnight in 100 μL of 10% FCS BME in a 37° C. incubator containing a humid, 5% CO2 atmosphere.
(§2) EDL-355 was dissolved completely to make a 100 μM stock solution and diluted to produce a series of concentrations.
(§3) A 20 μL aliquot of these initial solutions was added to 180 μl of 2% FCS BME to produce the test concentration. The vehicle solution was tested as a control. […] Immediately before treatment, the 10% FCS BME was removed from the cells and replaced with the […] of the treatment medium. The cultured cells (normal primary cultures of rat brain astrocytes or C6 glioma purchased from ATCC) were incubated with test compound for 4 days. The cells were fixed with 4% paraformaldehyde, stained with 0.1% Cresylecth violet stain, and quantitated. The screening data was collected as four wells for each dose per compound (screening) or concentration (dose response curve). Also, the average growth of 8 wells with no treatment was used as a negative control for each plate (100% growth). The cells for dose response curves were grown in the same media and were handled in a similar manner as in the screening assays.
(§4) Data Analysis. The cytotoxic character of each compound was reported as the percent survival, calculated as the average A560 for treated cells divided by A560 of untreated (100% control) cells, and expressed as a percentage. Values less than 100% indicate a cytostatic or cytotoxic effect. Dose response curves and EC50 values were attained via plots of percent survival vs. concentration.

For data set [2], the system named is primary cultures of normal rat astrocytes. The data set can be described thus: Screening and dose response assay (percent survival, 4 days, cresyl violet) on astrocytes. Type of data set: cell-based. As to conditions: Table 1.
Text: as §1, §2, §3, §4

This note sets out measurements from patent US20120059032A1, “1,2,3,4-TETRAHYDROISOQUINOLINE DERIVATIVES EFFECTIVE AS ANTIGLIOMA AGENTS, METHODS OF MAKING, AND THEIR USE” (University of Tennessee Research Foundation, priority 2009, published 2012).

Each structure is given as a SMILES string. Structures can show the parent of a compound that is named as a salt. Where two headings read alike, the source gives them in different places.

By melting point is commonly meant the temperature of the solid-liquid transition.

For `COc1cc2c(c(OC)c1)C(Cc1ccc(-c3ccccc3OC)cc1)NCC2` (single isomer, unassigned) [12a], the EC50 in data set [1] (Table 1, listed as drawing 11, read-out: EC50 μM C6) turned out to be 5.4 µM; in data set [1] (text b70, rat C6 glioma cell lines, listed as (−) 12a, read-out: antiglioma activity on rat C6 glioma cell lines) it was 5.39 µM; in data set [2] (listed as drawing 11, read-out: EC50 μM Astrocyte), 15.4 µM.

`COc1cc2c(c(OC)c1)C(Cc1ccc(-c3ccccc3OC)cc1)NCC2` (single isomer, unassigned) [13a]: the EC50 in data set [1] (Table 1, listed as drawing 12, read-out: EC50 μM C6) came out at 0.3 µM; in data set [1] (text b70, rat C6 glioma cell lines, listed as (+) 13a, read-out: antiglioma activity on rat C6 glioma cell lines), 0.26 µM; in data set [2] (Rattus norvegicus, Astrocyte) it was 13.3 µM. The “fold more potent than (−) 12a on rat C6 glioma cell lines” value in data set [1] (ratio of the C6 values of (−) 12a and (+) 13a) is given as about 21 fold.

`COc1cc2c(c(OC)c1)C(Cc1ccc(-c3ccccc3OC)cc1)NCC2.Cl` (stereo not drawn) [9a, 6,8-Dimethoxy-1-(2′-methoxybiphenyl-4-ylmethyl)-1,2,3,4-tetrahydroisoquinoline hydrochloride] yielded a melting point of 140 to 142 °C. Also, the EC50 in data set [2] (Rattus norvegicus, Astrocyte) was 10.2 µM. For the same compound, the EC50 in data set [2] (hydrochloride, read-out: EC50 μM Astrocyte) was determined as 8.52 µM.

Consider `COc1cc2c(c(OC)c1)C(Cc1ccc(-c3cnccc3OC)cc1)NCC2` (stereo not drawn) [9b, 6,8-Dimethoxy-1-[4-(4-methoxypyridin-3-yl)benzyl]-1,2,3,4-tetrahydroisoquinoline dihydrochloride], for which the EC50 stood at 0.08 µM in data set [1] (Rattus norvegicus, Glioma cell, Table 1, read-out: EC50 μM C6) and 13.7 µM in data set [2] (Rattus norvegicus, Astrocyte).
